# Laboratory results as given in US20050009060A1, “Multiplexed multitarget screening method” (priority 2003, published 2005).
# Biological target: 5HT2A receptor (Homo sapiens, UniProt P28223)
# Assay: Ca2+i mobilization by autosampling flow cytometry, single cell threshold analysis, Indo-1-loaded cells
# Format: cell-based
# Conditions: 1 uM serotonin; percent of cells with Ca2+i at least 2 SD above mean of buffer control
# Source text: Left panel: distribution of Ca^2+i levels measured by intensity ratio, and determination of threshold level as shown by arrow.
# A rotated histogram plot of such a response, and of the basal population, is shown in the left panel of FIG. 22, where the Ca^2+i level is shown on the x-axis and the number of cells attaining each Ca^2+i level is on the y-axis. […] The threshold is set by calculating the mean of the Ca^2+i level in the buffer control sample and calculating one (1) or more standard deviations above the mean. The choice to use one or more standard deviations is based on minimizing the error between buffer control samples and fully activated positive control samples. […] A threshold level at two standard deviations above the mean Ca^2+i level is shown by the arrow. Because the single cell flow cytometry as provided herein can analyze samples rapidly, about 100 to 200 cells, or more, can be analyzed in a short period. […] Data analysis is implemented in an automated software algorithm that automatically calculates Chi Square values along with the response frequency for each sample.
# Sequence of 5HT2A receptor (P28223 whole entry): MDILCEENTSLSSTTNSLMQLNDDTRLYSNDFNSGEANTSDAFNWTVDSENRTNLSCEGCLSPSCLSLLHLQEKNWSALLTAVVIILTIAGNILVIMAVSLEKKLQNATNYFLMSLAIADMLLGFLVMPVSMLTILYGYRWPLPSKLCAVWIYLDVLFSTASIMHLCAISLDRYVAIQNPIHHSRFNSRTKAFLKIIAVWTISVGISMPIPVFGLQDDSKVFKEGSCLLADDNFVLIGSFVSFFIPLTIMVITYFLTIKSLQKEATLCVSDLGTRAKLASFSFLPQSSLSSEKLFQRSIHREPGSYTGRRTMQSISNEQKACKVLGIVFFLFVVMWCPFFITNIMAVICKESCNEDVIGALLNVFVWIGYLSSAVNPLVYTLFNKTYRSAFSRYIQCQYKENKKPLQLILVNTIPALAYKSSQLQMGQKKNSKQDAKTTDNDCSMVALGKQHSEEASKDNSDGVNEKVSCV
structure (smiles),measurement,value
NCCc1c[nH]c2ccc(O)cc12 [serotonin],signal to baseline ratio (stimulated to unstimulated response frequency),over 50
